Key:
Details in all cases: in vivo
Corn, cultivar “Lorenzo” = assay: Herbicidal post-emergence action, damage to crop plants: corn
Description: (§1) Herbicidal Post-emergence Action
(§2) Seeds of monocotyledonous and dicotyledonous weeds and of crop plants are placed in sandy loam soil in plastic pots, covered with soil and cultivated in a greenhouse under good growth conditions.
(§3) Three weeks after sowing, the test plants are treated at the 3-4-leaf stage.
(§4) Stated is the respective degree of damage to the crop plants and the reduction of the damage by the herbicide/safener combinations according to the invention in percent, compared with the herbicide applied alone.

[1] = system: Barley, cultivar “Baronesse”; assay: Herbicidal post-emergence action, damage to crop plants: barley Baronesse
Description: as §1, §2, §3, §4

[2] = system: Wheat, cultivar “Kanzler”; assay: Herbicidal post-emergence action, damage to crop plants: wheat Kanzler
Description: as §1, §2, §3, §4

Barley, cultivar “Duett” = assay: Herbicidal post-emergence action, damage to crop plants: barley Duett
Description: as §1, §2, §3, §4

| SMILES | Degree of damage (Corn, cultivar “Lorenzo”) | Degree of damage [1] | Degree of damage [2] | Degree of damage (Barley, cultivar “Duett”) |
| --- | --- | --- | --- | --- |
| COC(=O)c1ccccc1S(=O)(=O)NC(=O)Nc1nc(C)nc(OC)n1 [herbicide A1.1, metsulfuron-methyl] | 50% | 10% | 10% | – |
| COC(=O)c1sccc1S(=O)(=O)NC(=O)Nc1nc(C)nc(OC)n1 [herbicide A2.1, thifensulfuron-methyl] | 20% | – | 10% | 20% |
| COC(=O)c1ccccc1S(=O)(=O)NC(=O)N(C)c1nc(C)nc(OC)n1 [herbicide A3.1, tribenuron-methyl] | 10% | – | 20% | – |
| COc1nc(C)nc(NC(=O)NS(=O)(=O)c2ccccc2Cl)n1 [herbicide A4.1, chlorsulfuron] | 70% | 10% | – | – |

Source: patent publication US7432226B2, “Herbicidally active composition” (Bayer CropScience GmbH, priority 2003, dated 2008)
